One series concerns erythrocytes. The settings on record: cited from earlier work.
Series [1] in a line: stability of the linker peptide by LC/MS. The class given is physicochemical. How it is done: To test the hypothesis that the new linker would be stable under normal operating conditions, the linker was first synthesized via solid phase peptide synthesis and then purified by preparative reverse phase HPLC. Characterization and purity of the linker was accomplished through analytical reverse phase HPLC and LC/MS (FIG. 11). The stability of the linker peptide was determined by LC/MS after exposure to a variety of conditions including incubations at room temperature, 37° C., 50° C., and exposure to sunlight.
However, this is not surprising since PL-L1 peptide is a photoactive compound and should photoactivate if provided the proper stimulus.

Where no end group is shown, it is not given here. photolabel = not defined here

Consider “H5WYG: cationic peptide from HA-2 with His in place of Glu (GGLFHAIAAHFIHGGWHGLIHGWWG)”, for which the hemolysis activity result in the series on erythrocytes (pH 6.4) is listed as “full hemolytic activity”.
As to “JTS-1: amphipathic acidic fusogenic peptide developed by Gottschalk and coworkers (GGLFEALLELLESLWELLLEA)”, in the series with erythrocytes (pH of 5), the “higher hemolysis activity than INF-7” value is recorded as 8 fold.
For the substance “PL-Tyr-Lys-Lys-Lys (photolabel-YKKK; reading uncertain; also: printed as PL-Tyr-Lys-Lys-Lys) [PL-L1]”, the “stability by LC/MS” value in series [1] (exposure to sunlight) is reported as “moderate degradation”; in series [1] (room temperature, 37° C., 50° C.), “stable”.

The record behind these values is patent US7795380B2, “Compositions and methods for nucleic acid delivery” (University of Iowa Research Foundation, priority 2006, dated 2010).
